# From PMC8529588 (Nature chemical biology, 2021)
# Where no end group is shown, it is not given here. [ ]: non-standard residue; d: D form. The star is where a group is joined. Biotin = O=C1N[C@H]2[C@H](CS[C@H]2CCCCC(=O)*)N1; pT = C[C@@H](OP(=O)(O)O)[C@H](N)C(=O)O
# T1: Fbxo48-V5 (Homo sapiens, UniProt Q5FWF7)
# T1 sequence (Q5FWF7 1-155): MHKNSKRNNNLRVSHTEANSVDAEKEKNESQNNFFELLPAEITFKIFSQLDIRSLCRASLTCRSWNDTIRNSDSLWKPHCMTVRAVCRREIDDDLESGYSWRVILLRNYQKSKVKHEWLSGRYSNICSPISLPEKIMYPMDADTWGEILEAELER
# T2: Purified human Fbxo48 protein (recombinant, HIS-tagged) (human, UniProt Q5FWF7 1-155)
# T2 sequence: T1 sequence (Q5FWF7 1-155)
# How the values were obtained:
# [1] = biological target: T1, Fbxo48-V5; test: cellular thermal shift assay; assay type: cell-based; settings: 3 μM BC1618, 30 min, HEK293/293T cells; Fbxo30-V5 as negative control
# [2] = biological target: T2, Purified human Fbxo48 protein …; test: pull-down
binding result [2],Molecule,"cellular thermal shift assay (CETSA), immunoblot [1]"
–,"OC(COc1ccc(C(F)(F)F)cc1)CN(Cc1ccccc1)Cc1ccccc1 (centres unmarked) [compound 2, BC1618]",BC1618 directly interacted with Fbxo48 but not Fbxo30 (negative control)
binds,Biotin-DGEFLR[pT]SCGSPN [phospho-Ampkα peptide (Biotin-DGEFLRT(p)SCGSPN)],–
